Data from paper PMC9505538, “P-Glycoprotein (MDR1/ABCB1) Restricts Brain Accumulation of the Novel EGFR Inhibitor EAI045 and Oral Elacridar Coadministration Enhances Its Brain Accumulation and Oral Exposure” (Pharmaceuticals, 2022).
Blank lines part the entries; values can stand above or below the compound they belong to.

Tests used:
[1] = set-up: method as in PMID 28288939, PMID 30253203, PMID 31175939, PMID 33459177, PMID 35400324; settings: reported; cited from earlier work
[2] = mouse, in vivo
Method: We subsequently analyzed the single and combined effects of Abcb1 and Abcg2 deficiencies on EAI045 plasma pharmacokinetics and tissue accumulation using male WT, Abcg2^-/-, Abcb1a/1b^-/-, and Abcb1a/1b;Abcg2^-/- mice. As we wanted to assess tissue concentrations while plasma concentrations were still relatively high; we terminated this experiment at 30 min.
(§1) Mice (Mus musculus) were bred in the Netherlands Cancer Institute and housed and handled according to institutional guidelines complying with Dutch and EU legislation. Animals used were WT, Abcb1a/1b^-/- [39], Abcg2^-/- [40], Abcb1a/1b;Abcg2^-/- [41], Cyp3a^-/- [42], and Oatp1a/1b^-/- [43] mice of a >99% FVB/N strain background. Homozygous CYP3A4 humanized transgenic mice (Cyp3aXAV) were generated by cross-breeding of transgenic mice with stable human CYP3A4 expression in the liver or intestine, respectively, in a Cyp3a^-/- background. Proper functionality of the knockout and transgenic strains was monitored by regular testing with a variety of drug substrates. All the mice used were between 10 and 15 weeks of age. Animals were kept in a temperature-controlled environment with a 12 h light/12 h dark cycle and received a standard diet (Transbreed, SDS Diets, Technilab-BMI, The Netherlands) and acidified water ad libitum. Depending on the type of experiment, 5 or 6 mice were tested in each experimental group. All experimental animal protocols, including power calculations, were ethically assessed and designed under the nationally approved DEC/CCD project AVD301002016595 (approval date, 10 August 2016) and evaluated and approved by the institutional animal care and use committee (IACUC) of the Netherlands Cancer Institute.
(§2) EAI045 was dissolved in dimethyl sulfoxide (DMSO) at a concentration of […], and then diluted with a mixture of polysorbate 80/ethanol (1:1, v/v), and further diluted with 5% (w/v) glucose in water to yield a concentration of 2 mg/mL. Final concentrations for DMSO, polysorbate 80, ethanol, and glucose in the dosing solution were 5%, 2.5%, 2.5%, and 4.5% (v/v/v/w), respectively. Elacridar hydrochloride was dissolved in DMSO at a concentration of 53 mg/mL, then diluted with a mixture of polysorbate 80, ethanol, and water [20:13:67, (v/v/v)] to yield a concentration of 5 mg/mL elacridar. The final oral dose of elacridar was 50 mg/kg body weight. All dosing solutions were prepared freshly on the day of experiment.
(§3) To minimize variation in absorption, mice were fasted for about 3 h before EAI045 was administered by gavage into the stomach (n = 5–6), using a blunt-ended needle. EAI045 was administered orally at dose of 20 mg/kg. Elacridar was administered orally at a dose of 50 mg/kg, 3 h prior to oral EAI045 administration. For the 24- or 4-h experiments, tail vein blood samplings were performed at 5 min, 30 min, 1, 2, 4, and 8 h, or 5 min, 15 min, 30 min, 1, and 2 h time points after oral administration of EAI045, respectively, using microvettes containing heparin. For the 30 min experiments, blood samplings were performed at 5, 10, and 20 min from the tail vein. At the last time point (24 h, 4 h, or 30 min), mice were anesthetized with isoflurane and blood was collected by cardiac puncture. Then, mice were sacrificed by cervical dislocation and brain, liver, spleen, kidneys, lung, small intestine with content (SIWC), and testis were rapidly removed and weighed. Tissues were homogenized on ice in appropriate volumes of 2% (w/v) BSA. Blood samples were centrifuged at 9000× g for 6 min at 4 °C immediately after collection. All samples were stored at −30 °C until analysis.

[3] = mouse, in vivo; remark: listed apart in the source
Source text: as §1, §2, §3

[4] = after oral administration; no reference given; cited from earlier work
human OATP1A2 = test system: human OATP1A2; set-up: method as in PMID 31770475; settings: cited from earlier work
[5] = test system: L858R/T790M EGFR mutant kinase; set-up: method as in PMID 27251290; settings: cited from earlier work

Compound: CN(C)C/C=C/C(=O)Nc1cc2c(Nc3ccc(F)c(Cl)c3)ncnc2cc1O[C@H]1CCOC1 [afatinib]
- increase in brain penetration in Abcb1a/1b;Abcg2-/- compared to WT mice [1]: 28 fold

- PIA SIWC%, fold decrease [2]: 1.8 fold
- PIA SIWC%-to-plasma ratio, fold decrease [2]: 2.7 fold
- amount of PIA retrieved from SIWC, % of the EAI045 dose [2]: ~ 0.3%
- PIA oral AUC0–30min among the strains ([2]; po): no meaningful differences
- PIA/EAI045 AUC0–30min ratio ([2]; po, 20 mg/kg): 270-480%
- PIA/EAI045 AUC ratio ([2]; po, 20 mg/kg): about 400%
- PIA brain-to-plasma ratio ([2]; po, 20 mg/kg, 0.5 h): 0.014
- PIA brain-to-plasma ratio, fold increase [3]: 3.3 fold
- PIA kidney-to-plasma ratio, fold increase [3]: 4.2 fold
- PIA liver-to-plasma ratio, fold decrease [3]: 1.5 fold
Compound: O=C(O)C(c1cc(F)ccc1O)N1Cc2ccccc2C1=O (stereo not shown) [PIA]

Compound: COc1cc2c(cc1OC)CN(CCc1ccc(NC(=O)c3cccc4c(=O)c5cccc(OC)c5[nH]c34)cc1)CC2 [elacridar]
- time of peak plasma concentration [4]: 3 to 4 h
- inhibition of human OATP1A2 (human OATP1A2): reported to inhibit

Compound: EAI001 [reference compound]
- potency against individual L858R and T790M mutants [5]: modest potency

Compound: COc1cc(N2CCC(N3CCN(C)CC3)CC2)ccc1Nc1ncc(Cl)c(Nc2ccccc2P(C)(C)=O)n1 [brigatinib]
- increase in brain penetration in Abcb1a/1b;Abcg2-/- compared to WT mice [1]: 38 fold

Compound: C=CC(=O)Nc1cc(Nc2nccc(-c3cn(C)c4ccccc34)n2)c(OC)cc1N(C)CCN(C)C [osimertinib]
- increase in brain penetration in Abcb1a/1b;Abcg2-/- compared to WT mice [1]: 6.4 fold
